O=[N+]([O-])c1ccc(-c2c(Cl)nc3ncnn3c2NCC(F)(F)F)cc1
melting point: 237 °C
